Measured values reported in ChEMBL document CHEMBL1667842, “Benzyl benzoates: New phlorizin analogs as mushroom tyrosinase inhibitors” (Bioorg Med Chem, 2011).
Active and inactive are the calls of the source. No cut-off for these calls is given here.

What was measured:
Tyrosinase [1] = target: T1, Tyrosinase (Agaricus bisporus, UniProt O42713)
T1 sequence (O42713 whole entry): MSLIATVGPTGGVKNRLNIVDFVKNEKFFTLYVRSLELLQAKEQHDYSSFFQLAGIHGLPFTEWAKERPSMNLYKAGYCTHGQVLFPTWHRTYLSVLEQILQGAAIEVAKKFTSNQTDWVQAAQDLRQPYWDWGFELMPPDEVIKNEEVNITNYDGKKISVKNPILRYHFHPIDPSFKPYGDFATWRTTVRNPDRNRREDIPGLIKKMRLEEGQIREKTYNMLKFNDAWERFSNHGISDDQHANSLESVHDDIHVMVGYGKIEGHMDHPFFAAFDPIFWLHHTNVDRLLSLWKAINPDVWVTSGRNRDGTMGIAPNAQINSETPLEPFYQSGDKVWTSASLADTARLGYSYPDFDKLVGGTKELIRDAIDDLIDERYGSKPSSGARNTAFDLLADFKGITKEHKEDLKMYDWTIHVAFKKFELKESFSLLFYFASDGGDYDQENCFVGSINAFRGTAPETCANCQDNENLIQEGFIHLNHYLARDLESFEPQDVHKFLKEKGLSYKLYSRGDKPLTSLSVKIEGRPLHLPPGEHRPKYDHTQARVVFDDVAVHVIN
Description: Inhibition of mushroom tyrosinase preincubated for 20 mins

Tyrosinase [2] = target: T1, Tyrosinase; test: (§1) Competitive inhibition of mushroom tyrosinase by Lineweaver-Burk plot analysis
[3] = target: T2, Tyrosinase (Agaricus bisporus) (UniProt O42713); test: as §1
T2 sequence (whole entry): T1 sequence (O42713 whole entry)

| Structure (SMILES) | IC50 (Tyrosinase [1]) [µM] | Ki (Tyrosinase [2]) [µM] | Activity [3] |
| --- | --- | --- | --- |
| O=C(OCc1ccccc1O)c1ccc(O)cc1O | 66.2 |  |  |
| O=C(OCc1cccc(O)c1)c1cc(O)ccc1O [3-HYDROXYBENZYL 2,5-DIHYDROXYBENZOATE] | 24.4 |  |  |
| O=C(OCc1ccccc1O)c1c(O)cc(O)cc1O | 19.9 |  |  |
| O=C(OCc1ccc(O)cc1)c1cc(O)c(O)c(O)c1 [4-HYDROXYBENZYL GALLATE] | 25.7 |  |  |
| O=C(OCc1ccccc1O)c1cc(O)c(O)c(O)c1 | > 100 |  |  |
| O=C(OCc1ccccc1O)c1cc(O)ccc1O | > 100 |  |  |

Now from value to compound:

| IC50 (Tyrosinase [1]) [µM] | Ki (Tyrosinase [2]) [µM] | Activity [3] | Structure (SMILES) |
| --- | --- | --- | --- |
| 11.5 |  |  | O=C(OCc1cccc(O)c1)c1cc(O)c(O)c(O)c1 |
| 4.69 | 1.11 |  | O=C(OCc1ccc(O)cc1)c1ccc(O)cc1O |
| 12.3 |  |  | O=C(OCc1ccc(O)cc1)c1cc(O)ccc1O [4-HYDROXYBENZYL 2,5-DIHYDROXYBENZOATE] |
| 19.9 |  |  | O=C(OCc1ccccc1O)c1cc(O)cc(O)c1 |
| 6.11 |  | Active | O=C(OCc1cccc(O)c1)c1cc(O)cc(O)c1 |
| 8 |  | Active | O=C(OCc1ccc(O)cc1)c1c(O)cc(O)cc1O [4-HYDROXYBENZYL 2,4,6-DIHYDROXYBENZOATE] |
| 5.84 |  | Active | O=C(OCc1ccc(O)cc1)c1cc(O)cc(O)c1 [4-HYDROXYBENZYL 3,5-DIHYDROXYBENZOATE] |
| 6.23 |  | Active | O=C(OCc1cccc(O)c1)c1ccc(O)cc1O |
